In patent US11753407B2, “Compounds for treating spinal muscular atrophy” (PTC Therapeutics, Inc., priority 2012, dated 2023):

Experiments:
[1] = system: SMN2 minigene mRNA (SMN2-A minigene) in HEK293H cells; test: SMN2 minigene mRNA splicing RT-qPCR assay in cultured cells; type: cell-based, human; details: Homo sapiens, HEK293-H; concentration increasing full length SMN2 mRNA 1.5-fold relative to vehicle-treated cells; HEK293H cells with SMN2-A minigene, 24 hours, 7-point concentration data; read-out: EC1.5x for production of full length SMN2 mRNA
Outline: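 HEK293H cells stably carrying the SMN2-A minigene were treated for 24 h at 37 °C with a 7-point, 3.16-fold dilution series of compound. Multiplex RT-qPCR measured exon 7-containing minigene FL mRNA against GAPDH, expressed relative to vehicle by modified ΔΔCt; the EC1.5× is the concentration giving a 1.5-fold increase.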

[2] = system: Smn protein in SMA patient fibroblast cells (GM03813); test: Smn protein assay in cultured cells (SMN HTRF); type: cell-based, human; details: SMA patient fibroblast cells, 48 hours; for EC1.5x for Smn protein expression: 7-point concentration curve, SMN HTRF, concentration producing 1.5 times Smn protein vs DMSO vehicle control; for maximum fold (Fold) increase of Smn protein: 7-point concentration data, fold relative to vehicle control
Outline: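 SMA patient fibroblasts (5,000 cells/well, DMEM-10% FBS) were treated for 48 h at 37 °C with a 7-point, 3.16-fold dilution series in triplicate. RIPA lysates were probed by HTRF (anti-SMN d2/kryptate, overnight, room temperature), reading 665/620 nm. EC1.5× is the concentration giving 1.5-fold Smn over DMSO vehicle.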

SMILES	EC (1.5-fold increase) [1]	EC1.5x for Smn protein expression [2]	maximum fold (Fold) increase of Smn protein [2]	melting point
Cc1nc2ccc(-c3cc(=O)n4cc(N5CCN6CCC[C@H]6C5)ccc4n3)cc2o1 [Compound 197, 7-[(8aS)-hexahydropyrrolo[1,2-a]pyrazin-2(1H)-yl]-2-(2-methyl-1,3-benzoxazol-6-yl)-4H-pyrido[1,2-a]pyrimidin-4-one]	0.1 to 0.3 µM	**** (an EC1.5x≤0.3 μM is indicated by four stars (****))	***** (a fold increase >1.65 is indicated by five stars (*****))	214 to 217 °C
Cc1nc2ccc(-c3cc(=O)n4cc(N5CCN6CCC[C@@H]6C5)ccc4n3)cc2o1 [Compound 198, 7-[(8aR)-hexahydropyrrolo[1,2-a]pyrazin-2(1H)-yl]-2-(2-methyl-1,3-benzoxazol-6-yl)-4H-pyrido[1,2-a]pyrimidin-4-one]	< 0.1 µM	**** (an EC1.5x≤0.3 μM is indicated by four stars (****))	**** (a fold increase between >1.5 and ≤1.65 is indicated by four stars (****))	194 to 199 °C
COc1cnc(-c2cc(=O)n3cc(N4CCNCC4)ccc3n2)cc1OC [Compound 199, 2-(4,5-dimethoxypyridin-2-yl)-7-(piperazin-1-yl)-4H-pyrido[1,2-a]pyrimidin-4-one]	0.3 to 1 µM	** (an EC1.5× between >1 μM and ≤3 μM is indicated by two stars (**))	**** (a fold increase between >1.5 and ≤1.65 is indicated by four stars (****))	207 to 209 °C
COc1ccc(-c2cc(=O)n3cc(N4CCC(N(C)C)C4)ccc3c2)cc1F (centres unmarked) [Compound 200, 7-[3-(dimethylamino)pyrrolidin-1-yl]-2-(3-fluoro-4-methoxyphenyl)-4H-quinolizin-4-one]	1 to 3 µM	–	* (A maximum fold increase of ≤1.2 is indicated by one star (*))	259 to 261 °C
CCN1CCN(c2ccc3nc(-c4ccc5nc(C)oc5c4)cc(=O)n3c2)CC1 [Compound 202, 7-(4-ethylpiperazin-1-yl)-2-(2-methyl-1,3-benzoxazol-6-yl)-4H-pyrido[1,2-a]pyrimidin-4-one]	0.3 to 1 µM	–	** (a fold increase between >1.2 and ≤1.35 is indicated by two stars (**))	212 to 216 °C
COc1ccc(-c2cc(=O)n3cc(C4=CCN(C)CC4)ccc3n2)cc1F [Compound 204, 2-(3-fluoro-4-methoxyphenyl)-7-(1-methyl-1,2,3,6-tetrahydropyridin-4-yl)-4H-pyrido[1,2-a]pyrimidin-4-one]	< 0.1 µM	**** (an EC1.5x≤0.3 μM is indicated by four stars (****))	**** (a fold increase between >1.5 and ≤1.65 is indicated by four stars (****))	129 to 132 °C
COc1ccc(-c2cc(=O)n3cc(N4CC[C@H](N(C)C)C4)ccc3n2)cc1F [Compound 205, 7-[(3S)-3-(dimethylamino)pyrrolidin-1-yl]-2-(3-fluoro-4-methoxyphenyl)-4H-pyrido[1,2-a]pyrimidin-4-one]	0.3 to 1 µM	–	** (a fold increase between >1.2 and ≤1.35 is indicated by two stars (**))	187 to 192 °C
COc1ccc(-c2cc(=O)n3cc(N4C[C@@H](O)[C@H](N(C)C)C4)ccc3n2)cc1F [Compound 206, 7-[(3R,4R)-3-(dimethylamino)-4-hydroxypyrrolidin-1-yl]-2-(3-fluoro-4-methoxyphenyl)-4H-pyrido[1,2-a]pyrimidin-4-one]	1 to 3 µM	–	** (a fold increase between >1.2 and ≤1.35 is indicated by two stars (**))	223 to 228 °C
COc1ccc(-c2cc(=O)n3cc(N4CCC(N)CC4)ccc3n2)cc1F [Compound 207, 7-(4-aminopiperidin-1-yl)-2-(3-fluoro-4-methoxyphenyl)-4H-pyrido[1,2-a]pyrimidin-4-one]	< 0.1 µM	–	*** (a fold increase between >1.35 and ≤1.5 is indicated by three stars (***))	173 to 179 °C
CNC1CCN(c2ccc3nc(-c4ccc(OC)c(F)c4)cc(=O)n3c2)CC1 [Compound 208, 2-(3-fluoro-4-methoxyphenyl)-7-[4-(methylamino)piperidin-1-yl]-4H-pyrido[1,2-a]pyrimidin-4-one]	< 0.1 µM	*** (an EC1.5× between >0.3 μM and ≤1 μM is indicated by three stars (***))	*** (a fold increase between >1.35 and ≤1.5 is indicated by three stars (***))	167 to 171 °C
Cc1cn2cc(-c3cc(=O)n4cc(N5C[C@@H](C)N[C@@H](C)C5)ccc4n3)cc(F)c2n1 [Compound 210, 7-[(3R,5S)-3,5-dimethylpiperazin-1-yl]-2-(8-fluoro-2-methylimidazo[1,2-a]pyridin-6-yl)-4H-pyrido[1,2-a]pyrimidin-4-one]	< 0.1 µM	**** (an EC1.5x≤0.3 μM is indicated by four stars (****))	**** (a fold increase between >1.5 and ≤1.65 is indicated by four stars (****))	255 to 259 °C
Cc1cn2cc(-c3cc(=O)n4cc(N5CCCN(C)CC5)ccc4n3)cc(F)c2n1 [Compound 211, 2-(8-fluoro-2-methylimidazo[1,2-a]pyridin-6-yl)-7-(4-methyl-1,4-diazepan-1-yl)-4H-pyrido[1,2-a]pyrimidin-4-one]	< 0.1 µM	**** (an EC1.5x≤0.3 μM is indicated by four stars (****))	**** (a fold increase between >1.5 and ≤1.65 is indicated by four stars (****))	262 to 266 °C
COc1ccc(-c2cc(=O)n3cc(N4C[C@H]5CNC[C@H]5C4)ccc3n2)cc1F [Compound 212, 2-(3-fluoro-4-methoxyphenyl)-7-[(3aR,6aS)-hexahydropyrrolo[3,4-c]pyrrol-2(1H)-yl]-4H-pyrido[1,2-a]pyrimidin-4-one]	0.1 to 0.3 µM	**** (an EC1.5x≤0.3 μM is indicated by four stars (****))	**** (a fold increase between >1.5 and ≤1.65 is indicated by four stars (****))	195 to 200 °C
COc1ccc(-c2cc(=O)n3cc(N4C[C@H]5CN(C)C[C@H]5C4)ccc3n2)cc1F [Compound 213, 2-(3-fluoro-4-methoxyphenyl)-7-[(3aR,6aS)-5-methylhexahydropyrrolo[3,4-c]pyrrol-2(1H)-yl]-4H-pyrido[1,2-a]pyrimidin-4-one]	0.1 to 0.3 µM	**** (an EC1.5x≤0.3 μM is indicated by four stars (****))	*** (a fold increase between >1.35 and ≤1.5 is indicated by three stars (***))	204 to 210 °C
COc1ccc(-c2cc(=O)n3cc(C4CCN(CCO)CC4)ccc3n2)cc1OC [Compound 214, 2-(3,4-dimethoxyphenyl)-7-[1-(2-hydroxyethyl)piperidin-4-yl]-4H-pyrido[1,2-a]pyrimidin-4-one]	0.3 to 1 µM	** (an EC1.5× between >1 μM and ≤3 μM is indicated by two stars (**))	**** (a fold increase between >1.5 and ≤1.65 is indicated by four stars (****))	145 to 148 °C
COc1cc(-c2cc(=O)n3cc(N4CCN[C@@H](C)C4)ccc3n2)ccc1F [Compound 215, 2-(4-fluoro-3-methoxyphenyl)-7-[(3S)-3-methylpiperazin-1-yl]-4H-pyrido[1,2-a]pyrimidin-4-one]	0.3 to 1 µM	–	*** (a fold increase between >1.35 and ≤1.5 is indicated by three stars (***))	130 to 135 °C
COc1cc(-c2cc(=O)n3cc(N4CCNCC4)ccc3n2)ccc1F [Compound 216, 2-(4-fluoro-3-methoxyphenyl)-7-(piperazin-1-yl)-4H-pyrido[1,2-a]pyrimidin-4-one]	0.3 to 1 µM	–	*** (a fold increase between >1.35 and ≤1.5 is indicated by three stars (***))	170 to 172 °C
COc1cc(-c2cc(=O)n3cc(N4CCN[C@@H](C)C4)ccc3n2)cc(F)c1F [Compound 217, 2-(3,4-difluoro-5-methoxyphenyl)-7-[(3S)-3-methylpiperazin-1-yl]-4H-pyrido[1,2-a]pyrimidin-4-one]	0.3 to 1 µM	–	*** (a fold increase between >1.35 and ≤1.5 is indicated by three stars (***))	160 to 164 °C
COc1cc(-c2cc(=O)n3cc(N4CCNCC4)ccc3n2)cc(F)c1F [Compound 218, 2-(3,4-difluoro-5-methoxyphenyl)-7-(piperazin-1-yl)-4H-pyrido[1,2-a]pyrimidin-4-one]	0.1 to 0.3 µM	** (an EC1.5× between >1 μM and ≤3 μM is indicated by two stars (**))	*** (a fold increase between >1.35 and ≤1.5 is indicated by three stars (***))	155 to 160 °C
